Read-outs that look alike come from different tables or passages of the source.
Key:
human ETB receptor = biological target: T1, human ETB receptor (Homo sapiens, UniProt P24530); test: Binding Test #2: inhibition of 125I-ET-1 binding to ETB receptors (transfected COS7 cell membranes); details: read-out: ETB
T1 construct: expressed in transfected cells; host or cells: COS7 cells
T1 sequence (P24530 27-442): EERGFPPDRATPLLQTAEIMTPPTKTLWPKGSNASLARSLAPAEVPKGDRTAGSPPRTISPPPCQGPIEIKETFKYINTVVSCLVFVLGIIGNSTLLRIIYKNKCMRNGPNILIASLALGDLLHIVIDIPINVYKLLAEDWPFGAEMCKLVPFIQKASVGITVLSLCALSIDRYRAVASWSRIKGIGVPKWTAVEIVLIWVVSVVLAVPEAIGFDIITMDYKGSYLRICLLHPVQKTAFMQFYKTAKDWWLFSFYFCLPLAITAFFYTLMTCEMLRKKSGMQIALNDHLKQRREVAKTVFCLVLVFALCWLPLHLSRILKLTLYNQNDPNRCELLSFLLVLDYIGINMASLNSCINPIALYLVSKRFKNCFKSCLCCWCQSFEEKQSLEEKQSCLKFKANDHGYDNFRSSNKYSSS
Excerpt: (§1) Compounds that are potential endothelin antagonists are identified by testing their ability to compete with ^125I-labeled ET-1 for binding to human ETA receptors or ETB receptors present on isolated cell membranes. The effectiveness of the test compound as an antagonist or agonist of the biological tissue response of endothelin can also be assessed by measuring the effect on endothelin induced contraction of isolated rat thoracic aortic rings. The ability of the compounds to act as antagonists or agonists for ETB receptors can be assess by testing the ability of the compounds are to inhibit endothelin-1 induced prostacyclin release from cultured bovine aortic endothelial cells.
B. Endothelin Binding Inhibition—Binding Test #2: Inhibition of Binding to ETB Receptors
COS7 cells were transfected with DNA encoding the ETB receptor, The resulting cells, which express the human ETB receptor, were grown to confluence in T-150 flasks. Membrane was prepared as described above. The binding assay was performed as described above using the membrane preparation diluted with binding buffer to a concentration of 1 μg/50 μl.
Briefly, the COS7 cells, described above, that had been transfected with DNA encoding the ETB receptor and express the human ETB receptor on their surfaces were grown to confluence in T-1 75 flasks. Cells from multiple flasks were collected by scraping, pooled and centrifuged for 10 min at 190×g. The cells were resuspended in phosphate buffered saline (PBS) containing 10 mM EDTA using a Tenbroeck homogenizer. The suspension was centrifuged at 4° C. 57,800 X g for 15 min, the pellet was resuspended in 5 ml of buffer A (5mM HEPES buffer, pH 7.4 containing aprotinin (100 KIU/ml)) and then frozen and thawed once. Five ml of Buffer B (5 mM HEPES Buffer, pH 7.4 containing 10 mM MnCl2 and 0.001% deoxyribonuclease Type 1) was added, the suspension mixed by inversion and then incubated at 37° C. for 30 minutes. The mixture was centrifuged at 57,800×g as described above, the pellet washed twice with buffer A and then resuspended in buffer C (30 mM HEPES buffer, pH 7.4 containing aprotinin (100 KIU/ml) to give a final protein concentration of 2 mg/ml.
The binding assay was performed as described above using the membrane preparation diluted to give 1 μg/50 μl of binding buffer.

human ETA receptors = biological target: T2, human ETA receptors (Homo sapiens, UniProt P25101); test: Binding Test #1: inhibition of 125I-ET-1 binding to ETA receptors (TE 671 cell membranes); details: for IC50: read-out: ETA
T2 construct: endogenous in cells; host or cells: TE 671 cells (ATCC HTB 139)
T2 sequence (P25101 21-427): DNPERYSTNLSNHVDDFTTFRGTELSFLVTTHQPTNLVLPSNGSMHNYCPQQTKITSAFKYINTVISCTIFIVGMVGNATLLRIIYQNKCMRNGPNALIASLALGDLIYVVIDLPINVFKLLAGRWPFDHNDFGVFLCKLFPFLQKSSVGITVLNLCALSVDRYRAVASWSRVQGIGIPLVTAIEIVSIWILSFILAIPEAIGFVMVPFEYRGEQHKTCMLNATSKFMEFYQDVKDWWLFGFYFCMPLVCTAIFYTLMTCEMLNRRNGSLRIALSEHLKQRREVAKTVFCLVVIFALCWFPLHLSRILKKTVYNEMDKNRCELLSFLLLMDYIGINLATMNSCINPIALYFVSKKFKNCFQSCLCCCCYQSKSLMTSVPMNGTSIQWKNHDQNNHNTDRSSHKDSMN
Excerpt: as §1
A. Endothelin Binding Inhibition—Binding Test #1: Inhibition of Binding to ETA Receptors
TE 671 cells (ATCC Accession No. HTB 139) express ETA receptors. These cells were grown to confluence in T-175 flasks. Cells from multiple flasks were collected by scraping, pooled and centrifuged for 10 min at 190×g. The cells were resuspended in phosphate buffered saline (PBS) containing 10 mM EDTA using a Tenbroeck homogenizer. The suspension was centrifuged at 4° C. at 57,800×g for 15 min, the pellet was resuspended in 5 ml of buffer A (5 mM HEPES buffer, pH 7.4 containing aprotinin (100 KIU/ml)) and then frozen and thawed once. 5 ml of Buffer B (5 mM HEPES Buffer, pH 7.4 containing 10 mM MnCl2 and 0.001% deoxyribonuclease Type 1) was added, the suspension mixed by inversion and then incubated at 37° C. for 30 minutes. The mixture was centrifuged at 57,800×g as described above, the pellet washed twice with buffer A and then resuspended in buffer C (30 mM HEPES buffer, pH 7.4 containing aprotinin (100 KIU/ml) to give a final protein concentration of 2 mg/ml and stored at −70° C. until use.
The membrane suspension was diluted with binding buffer (30 mM HEPES buffer, pH 7.4 containing 150 mM NaCl, 5mM MgCl2, 0.5% Bacitracin) to a concentration of 8 μg/50 μl. ^125I-endothelin-1 (3,000 cpm, […]) was added to 50 μL of either: (A) endothelin-1 (for non specific binding) to give a final concentration 80 nM); (B) binding buffer (for total binding); or (C) a test compound (final concentration 1 nM to 100 μM). The membrane suspension (50 μL), containing up to 8 μg of membrane protein, was added to each of (A), (B), or (C). Mixtures were shaken, and incubated at 4° C. for 16-18 hours, and then centrifuged at […] for 25 min at 2,500×g. Alternatively, the incubation was conducted at 24° C. […] This, must be kept in mind when comparing IC50 concentrations among compounds provided herein.
The supernatant, containing unbound radioactivity, was decanted and the pellet counted on a Genesys multiwell gamma counter. The degree of inhibition of binding (D) was calculated according to the following equation: [formula]
Each test was generally performed in triplicate.

[1] = Table 1, † incubation at 24° C.
[2] = Table 2, † incubation at 24° C.
[3] = Table 3, † incubation at 24° C.

Molecule	IC50 (human ETA receptors; Table 1, incubation at 4° C.) [nM]	IC50 (human ETA receptors; [1]) [nM]	IC50 (human ETA receptors; [3]) [nM]	further results
Cc1noc(NS(=O)(=O)c2ccsc2NC(=O)Nc2sccc2S(=O)(=O)Nc2onc(C)c2Br)c1Br [N,N′-bis{3-[(4-bromo-3-methyl-5-isoxazolyl)aminosulfonyl)thien-2-yl} urea]	69.2	295		IC50 (human ETB receptor; Table 1, incubation at 4° C.): 0.29 µM; IC50 (human ETB receptor; [1]): 1.19 µM
COc1cc(NC(=O)c2sccc2S(=O)(=O)Nc2onc(C)c2Cl)c(C(N)=O)cc1OC [N-(4-chloro-3-methyl-5-isoxazolyl)-2-(2-carboxamido-4,5-dimethoxyphenylaminocarbonyl)thiophene-3-sulfonamide]		11		IC50 (human ETB receptor; [1]): 61 µM
Cc1ccc(OC(=O)c2sccc2S(=O)(=O)Nc2onc(C)c2Br)cc1 [N-(4-bromo-3-methyl-5-isoxazolyl)-2-[(4-methylphenoxy)carbonyl]thiophene-3-sulfonamide]		122000		
N-(4-bromo-3-methyl-5-isoxazolyl)-4′-methylphenyl-4-biphenylsulfonamide				IC50 (human ETB receptor; Table 2, incubation at 4° C.): 0.046 ± 0.044 µM; IC50 (human ETB receptor; [2]): 0.168 ± 0.0032 µM; IC50 (human ETA receptors; Table 2, incubation at 4° C.): 14500 ± 9600 nM; IC50 (human ETA receptors; [2]): 22200 ± 3770 nM
Cc1cc2c(cc1CCc1sccc1S(=O)(=O)Nc1onc(C)c1Br)OCO2 [N-(4-bromo-3-methyl-5-isoxazolyl)-2-[2-methyl-4,5-(methylenedioxy)phenethyl]thiophene-3-sulfonamide]		61.9		IC50 (human ETB receptor; [1]): 8.9 µM
Cc1noc(NS(=O)(=O)c2ccsc2C(=O)O)c1C [N-(3,4-dimethyl-5-isoxazolyl)-2-(carboxyl)thiophene-3-sulfonamide]	2640			IC50 (human ETB receptor; Table 1, incubation at 4° C.): > 100 µM
CCc1sc2ccccc2c1S(=O)(=O)Nc1onc(C)c1Br [N-(4-bromo-3-methyl-5-isoxazolyl)-2-ethylbenzo[b]thiophene-3-sulfonamide]	6.7			IC50 (human ETB receptor; Table 1, incubation at 4° C.): 5.13 µM
CCCCc1ccc(NC(=O)c2sccc2S(=O)(=O)Nc2onc(C)c2Br)cc1 [N-(4-bromo-3-methyl-5-isoxazolyl)-2-(4-butylphenyl)aminocarbonylthiophene-3-sulfonamide]	44			IC50 (human ETB receptor; Table 1, incubation at 4° C.): 2.84 µM
Cc1cc(S(=O)(=O)Nc2onc(C)c2Br)c(C)s1 [N-(4-Bromo-3-methyl-5-isoxazolyl)-2,5-dimethylthiophene-3-sulfonamide]	95.6			IC50 (human ETB receptor; Table 1, incubation at 4° C.): 7.8 µM
Cc1noc(NS(=O)(=O)c2ccsc2C(=O)OC2CCCCC2)c1Cl [N-(4-chloro-3-methyl-5-isoxozolyl-2-(cyclohexyloxycarbonyl)thiophene-3-sulfonamide]		440		IC50 (human ETB receptor; [1]): 34 µM
COC(=O)c1sccc1S(=O)(=O)Nc1onc(C)c1C [N-(3,4-dimethyl-5-isoxazolyl)-2-(carbomethoxy)thiophene-3-sulfonamide]	367			
CC(=O)c1cc(C)cc(C)c1NC(=O)c1sc(C)cc1S(=O)(=O)Nc1onc(C)c1Cl [N-(2-acetyl-4,6-dimethylphenyl)-3-(((4-chloro-3-methyl-5-isoxazolyl)amino)sulfonyl)-5-methyl-2-thiophenecarboxamide]			2.94	ETA/ETB selectivity (human ETA receptors; Table 3): 9000^∥
Cc1noc(NS(=O)(=O)c2ccco2)c1C [N-(3,4-dimethyl-5-isoxazolyl)furan-2-sulfonamide]	3130			
Cc1cc(C)c(NC(=O)c2sccc2S(=O)(=O)Nc2onc(C)c2Cl)c(C(=O)C2CCCCC2)c1 [3-(((4-chloro-3-methyl-5-isoxazolyl)amino)sulfonyl)-N-(2-(cyclohexylcarbonyl)-4,6-dimethylphenyl)-2-thiophenecarboxamide]			14.9	ETA/ETB selectivity (human ETA receptors; Table 3): 1300^∥
Cc1cc(C)c(OC(N)=O)c(C)c1NC(=O)c1sccc1S(=O)(=O)Nc1onc(C)c1Cl [3-(((3-(((4-chloro-3-methyl-5-isoxazolyl)amino)sulfonyl)-2-thienyl)carbonyl)amino)-2,4,6-trimethyiphenyl carbamate]			5.45	
Cc1cc(C)c(NC(=O)c2sccc2S(=O)(=O)Nc2onc(C)c2Cl)c(C(=O)c2ccccc2)c1 [N-(2-benzoyl-4,6-dimethylphenyl)-3-(((4-chloro-3-methyl-5-isoxazolyl)amino)sulfonyl)-2-thiophenecarboxamide]			4.26	ETA/ETB selectivity (human ETA receptors; Table 3): 6000^∥
Cc1noc(NS(=O)(=O)c2cc(S(=O)(=O)c3ccccc3)cs2)c1Br [N-(4-Bromo-3-methyl-5-isoxazolyl)-4-benzenesulfonylthiophene-2-sulfonamide]	383			
COC(=O)c1cc(OC)c(OC)cc1NC(=O)c1sccc1S(=O)(=O)Nc1onc(C)c1Cl [N-(4-chloro-3-methyl-5-isoxazolyl)2-{[4,5-dimethoxy-2,4,5-di] [N-(4-chloro-3-methyl-5-isoxazolyl)2-{[4,5-dimethoxy-2,4,5-dimethoxy-2-methoxycarbonyl)phenyl]phenylaminocarbonyl}thiophene-3-sulfonamide]		3800		
COC(=O)Oc1c(C)cc(C)c(NC(=O)c2sccc2S(=O)(=O)Nc2onc(C)c2Cl)c1C [3-(((3-(((4-chloro-3-methyl-5-isoxazolyl)amino)sulfonyl)-2-thienyl)carbonyl)amino)-2,4,6-trimethylphenyl methyl carbonate]			0.75	
CCC(=O)c1cc(C)cc(C)c1NC(=O)c1sccc1S(=O)(=O)Nc1onc(C)c1Cl [3-(((4-chloro-3-methyl-5-isoxazolyl)amino)sulfonyl)-N-(2,4-dimethyl-6-propionylphenyl)-2-thiophenecarboxamide]			0.61	ETA/ETB selectivity (human ETA receptors; Table 3): 21000^∥
